These results are taken from US12545686B2, “Polymorphic forms of (s)-n-(3-bromo-2-fluorophenyl)-7-((4-methylpiperazin-1-yl)methyl)-7,8-dihydro-[1,4]dioxino[2,3-g]quinazolin-4-amine as EGFR inhibitors” (ERASCA, INC., priority 2021, dated 2026).

Values after ≈ are worked out from the molar mass of the structure shown.

The nature of data set [1]: Thermogravimetry coupled with FT-IR (TG-FTIR), decomposition. The format is physicochemical. Here is the method:
TG-FTIR: Thermogravimetric measurements were carried out with a Netzsch Thermo-Microbalance TG 209 coupled to a Bruker FTIR Spectrometer Vector 22 (sample pans with a pinhole, N2 atmosphere, heating rate 10 K/min).

Data set [2] can be described thus: Dynamic vapor sorption (DVS), with PXRD and TG-FTIR of the post-DVS sample. The format is physicochemical. How it is done:
Dynamic vapor sorption: DVS measurements were performed with an SPS11-100n “Sorptions Prifsystem” from ProUmid (formerly “Projekt Messtechnik”), August-Nagel-Str. 23, 89079 Ulm (Germany). About 5-20 mg of sample was put into an aluminum sample pan. Humidity change rates of 5% per hour were used. The applied measurement program is visualized in the figure (blue trace). The presentations showing the effective water content are corrected.
The sample was placed on an aluminum or platinum holder on top of a microbalance and allowed to equilibrate at 50% RH before starting the pre-defined humidity programs. The measurement program is visualized in the figures of the report.
Classification of Hygroscopicity: The hygroscopicity was classified based on the mass gain at 85% RH relative to the initial mass as follows: deliquescent (sufficient water adsorbed to form a liquid), very hygroscopic (mass increase of ≥15%), hygroscopic (mass increase <15% but ≥2%), slightly hygroscopic (mass increase <2% but ≥0.2%), or non-hygroscopic (mass increase <0.2%).

The nature of data set [3]: Approximate solubility by incremental addition of solvent. In kind it is physicochemical. Conditions: for solubility: thermodynamic from solid; for solubility / Approximate solubility: room temperature. Here is the method: Solubility: Approximate solubilities were determined by incremental addition of solvent to about 10 mg the compound. If the substance was not dissolved by addition of a total of at least 10 ml solvent, the solubility is indicated as <1 mg/ml. Due to the experimental error inherent in this method, the solubility values are intended to be regarded as rough estimates and are to be used solely for the design of crystallization experiments.
Approximate solubilities were determined for amorphous Compound (I) at room temperature. These values were obtained by addition of small aliquots of solvent to small amounts of solid to achieve dissolution by stirring or agitation for a short period of time. […] Ratios for solvent mixtures correspond to volume ratios.
Initially the tests were carried out with the amorphous form Compound (I) and later on, after stable crystalline Form D (Example 7 below) was discovered, some of the tests were repeated with the crystalline form. […] Antisolvents are water, heptane, and TBME. […] Based on available data and further experiments diisopropylether, cyclohexane and methylcyclohexane can also be used as antisolvents.

The nature of the next data set: Aqueous solubility. In kind it is physicochemical. Conditions: water, thermodynamic from solid.
Data set [4] can be described thus: pH dependent solubility tests in 0.1 M HCl, citrate buffer and USP phosphate buffers. In kind it is physicochemical. As to conditions: for solubility: thermodynamic from solid. How it is done:
pH dependent solubility tests were conducted in 0.1 M HCl, in citrate buffer, and in USP phosphate buffers with nominal pH values of 6.8 and 7.4. Solubility tests at pH values below 5 failed because all compounds dissolved during the equilibration phase.

For data set [5] the following is noted: as disclosed in WO 2020/190765; cited from earlier work.
The target of a further data set is EGFR (Homo sapiens, UniProt P00533). Conditions: as disclosed in WO 2020/190765; cited from earlier work.
EGFR, sequence (P00533 25-1210): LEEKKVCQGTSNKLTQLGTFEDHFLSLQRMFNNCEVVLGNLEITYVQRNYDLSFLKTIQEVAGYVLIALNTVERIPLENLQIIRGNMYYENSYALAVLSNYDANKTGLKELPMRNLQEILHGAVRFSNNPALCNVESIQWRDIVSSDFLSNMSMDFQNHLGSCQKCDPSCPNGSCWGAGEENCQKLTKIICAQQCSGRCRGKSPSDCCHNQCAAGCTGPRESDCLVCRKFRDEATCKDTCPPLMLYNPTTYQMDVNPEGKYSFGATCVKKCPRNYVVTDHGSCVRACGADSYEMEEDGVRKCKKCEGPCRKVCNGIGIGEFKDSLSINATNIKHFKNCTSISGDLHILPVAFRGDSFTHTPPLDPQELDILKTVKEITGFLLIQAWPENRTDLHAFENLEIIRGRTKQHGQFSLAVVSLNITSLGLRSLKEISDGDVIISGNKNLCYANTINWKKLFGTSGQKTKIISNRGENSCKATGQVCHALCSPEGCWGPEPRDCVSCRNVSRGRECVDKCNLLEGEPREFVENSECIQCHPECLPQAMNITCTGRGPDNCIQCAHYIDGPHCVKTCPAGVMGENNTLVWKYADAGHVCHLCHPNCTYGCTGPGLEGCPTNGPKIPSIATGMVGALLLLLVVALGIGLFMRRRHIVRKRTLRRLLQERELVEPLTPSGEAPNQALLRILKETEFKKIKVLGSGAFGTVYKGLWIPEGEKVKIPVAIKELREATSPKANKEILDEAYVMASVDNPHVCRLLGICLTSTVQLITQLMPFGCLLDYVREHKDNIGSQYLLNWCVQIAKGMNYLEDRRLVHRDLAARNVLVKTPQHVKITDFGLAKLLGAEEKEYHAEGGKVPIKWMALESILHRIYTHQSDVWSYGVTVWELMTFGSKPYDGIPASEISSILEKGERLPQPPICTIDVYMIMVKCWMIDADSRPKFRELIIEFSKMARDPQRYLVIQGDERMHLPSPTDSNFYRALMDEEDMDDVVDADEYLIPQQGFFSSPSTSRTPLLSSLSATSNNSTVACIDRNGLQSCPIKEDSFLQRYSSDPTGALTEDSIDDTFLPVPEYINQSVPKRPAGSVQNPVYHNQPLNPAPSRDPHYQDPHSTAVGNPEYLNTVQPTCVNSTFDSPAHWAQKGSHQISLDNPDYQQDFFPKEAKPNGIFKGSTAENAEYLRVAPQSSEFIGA

As a reminder, the solubility is how much of the substance goes into solution per volume. Consider `CN1CCN(C[C@H]2COc3cc4ncnc(Nc5cccc(Br)c5F)c4cc3O2)CC1` [Amorphous form, (S)—N-(3-bromo-2-fluorophenyl)-7-((4-methylpiperazin-1-yl)methyl)-7,8-dihydro-[1,4]dioxino[2,3-g]quinazolin-4-amine], for which the Decomposition temperature result in data set [1] is “above 200 °C”. Also, in data set [2] (DVS, classes based on mass gain at 85% RH relative to initial mass), the Hygroscopicity classification result is “hygroscopic (hygroscopic (mass increase <15% but ≥2%))”. In addition, the “Solid form of the sample recovered post-DVS (PXRD)” value in data set [2] (PXRD after DVS) is “has not changed”. Moreover, the “Water lost during DVS” value in data set [2] (approximately same amount as during TG-FTIR) is “roughly 1.5%”. Also, the “Water content at the end of the DVS test” value in data set [2] (end of test) was “about 6.4%”. The “Water content at the high r.h. end during the DVS cycles” value in data set [2] (high r.h. end) is “about 15%”. Also, the solubility is above 100 mg/mL in data set [3] (2-propanol, organic solvent or mixture, Propanol, 2-); above 100 mg/mL in data set [3] (MEK, organic solvent or mixture); around 2 mg/mL (≈ 4.1 mM) in data set [3] (TBME, organic solvent or mixture); above 130 mg/mL in data set [3] (THF, organic solvent or mixture); around 2 mg/mL (≈ 4.1 mM) in data set [3] (THF/n-heptane (1/1, v/v), organic solvent or mixture, THF/n-heptane (1/1)); above 130 mg/mL in data set [3] (acetic acid/water (1/3, v/v), aqueous with cosolvent or surfactant or cyclodextrin, Acetic acid/water (1/3)). Moreover, the solubility in data set [3] (acetone, organic solvent or mixture) is above 100 mg/mL; in data set [3] (acetone/water (1/1, v/v), aqueous with cosolvent or surfactant or cyclodextrin, Acetone/water (1/1)), above 120 mg/mL; in data set [3] (acetonitrile/water (1/1, v/v), aqueous with cosolvent or surfactant or cyclodextrin, Acetonitrile/water (1/1)), above 110 mg/mL; in data set [3] (anisole, organic solvent or mixture) it was above 160 mg/mL; in data set [3] (dichloromethane, organic solvent or mixture) it was above 100 mg/mL; in data set [3] (ethanol, organic solvent or mixture) it was above 100 mg/mL. Besides, the solubility in data set [3] (ethanol/n-heptane (1/1, v/v), organic solvent or mixture, Ethanol/n-heptane (1/1)) was above 130 mg/mL; in data set [3] (ethanol/water (1/1, v/v), aqueous with cosolvent or surfactant or cyclodextrin, Ethanol/water (1/1)), above 100 mg/mL; in data set [3] (ethyl acetate, organic solvent or mixture), above 100 mg/mL; in data set [3] (methanol, organic solvent or mixture) it was above 100 mg/mL; in data set [3] (methanol/TBME (1/2, v/v), organic solvent or mixture, Methanol/TBME (1/2)), above 140 mg/mL; in data set [3] (n-heptane, organic solvent or mixture), below 1 mg/mL. The solubility in data set [4] (USP phosphate buffer (nominal pH 6.8), aqueous buffer, effective pH 6.95) came out at 0.316 mg/mL (≈ 0.647 mM); in data set [4] (USP phosphate buffer (nominal pH 7.4), pH 7.5, aqueous buffer, effective pH 7.50) it was 0.094 mg/mL (≈ 0.192 mM); in data set [4] (citrate buffer, aqueous buffer, effective pH 6.25), 9.63 mg/mL (≈ 19.7 mM). The Approximate solubility entry is given as “S > 130 mg/ml” in data set [3] (Acetonitrile), “S > 130 mg/ml” in data set [3] (Ethanol/n-heptane (1/3)), “S~100 mg/ml” in data set [3] (Isopropyl acetate) and “S < 1 mg/ml” in data set [3] (Water). Besides, the “Solubility in the most common organic solvents (in words)” value in data set [3] (acetic acid, ketones, alcohols, esters, dichloromethane and mixtures thereof) was “highly soluble”. This compound also registered a solubility at 24 h in the data set “Aqueous solubility” (equilibration time 24 hours, pH 9.27) of 0.049 mg/mL (≈ 0.1 mM). Also, the concentration in solution in the data set “Aqueous solubility” (equilibration time one hour, pH 9.16) (solubility at 1 h) was 0.046 mg/mL (≈ 0.0942 mM).
As for `CN1CCN(C[C@H]2COc3cc4ncnc(Nc5cccc(Br)c5F)c4cc3O2)CC1` [Compound (I), (S)—N-(3-bromo-2-fluorophenyl)-7-((4-methylpiperazin-1-yl)methyl)-7,8-dihydro-[1,4]dioxino[2,3-g]quinazolin-4-amine], the Brain penetration capability result in data set [5] is recorded as “brain penetration capability”. Moreover, the EGFR inhibitory activity entry on EGFR is given as “good EGFR inhibitory activity”. Further, in data set [4] (in 1.0 ml of 0.1M HCl), the “Amount of compound that easily dissolves (approximate test)” value is recorded as at least 55 mg.
